# Data taken from patent US11147812B2, “Tyrosine analogues derivatives as Rho-kinase inhibitors” (Chiesi Farmaceutici S.p.A., priority 2017, dated 2021).
# What was measured:
# Rho kinase 2 (ROCK2) = Rho kinase 2 (ROCK2) (Homo sapiens, UniProt O75116); assay: In vitro Rho kinase inhibitory activity assay (ADP-Glo), ROCK2; type: biochemical; conditions: 10 μM ATP, 25° C., Ki by Cheng-Prusoff
# Experimental: (§1) The effectiveness of compounds of the present invention to inhibit Rho kinase activity can be determined in a 10 μl assay containing 40 mM Tris pH7.5, 20 mM MgCl2 0.1 mg/ml BSA, 50 μM DTT and 2.5 μM peptide substrate (Myelin Basic Protein) using an ADP-Glo kit (Promega). Compounds were dissolved in DMSO such that the final concentration of DMSO was 1% in the assay. All reactions/incubations are performed at 25° C. Compound (2 ul) and either Rho kinase 1 or 2 (4 μl) were mixed and incubated for 30 mins. Reactions were initiated by addition of ATP (4 μl) such that the final concentration of ATP in the assay was 10 μM. After a 1 hour incubation 10 μl of ADP-Glo Reagent was added and after a further 45 minute incubation 20 ul of Kinase Detection Buffer was added and the mixture incubated for a further 30 minutes. The luminescent signal was measured on a luminometer. […] Compounds were tested in dose-response format and the inhibition of kinase activity was calculated at each concentration of compound. To determine the IC50 (concentration of compound required to inhibit 50% of the enzyme activity) data were fit to a plot of % inhibition vs Log10 compound concentration using a sigmoidal fit with a variable slope and fixing the maximum to 100% and the minimum to 0%. To determine the Ki values the Cheng-Prusoff equation was utilized (Ki=IC50/(1+[S]/Km)
# Rho kinase 1 (ROCK1) = Rho kinase 1 (ROCK1) (Homo sapiens, UniProt Q13464); assay: In vitro Rho kinase inhibitory activity assay (ADP-Glo), ROCK1; type: biochemical; conditions: 10 μM ATP, 25° C., Ki by Cheng-Prusoff
# Rho kinase 1 (ROCK1), sequence (Q13464 whole entry): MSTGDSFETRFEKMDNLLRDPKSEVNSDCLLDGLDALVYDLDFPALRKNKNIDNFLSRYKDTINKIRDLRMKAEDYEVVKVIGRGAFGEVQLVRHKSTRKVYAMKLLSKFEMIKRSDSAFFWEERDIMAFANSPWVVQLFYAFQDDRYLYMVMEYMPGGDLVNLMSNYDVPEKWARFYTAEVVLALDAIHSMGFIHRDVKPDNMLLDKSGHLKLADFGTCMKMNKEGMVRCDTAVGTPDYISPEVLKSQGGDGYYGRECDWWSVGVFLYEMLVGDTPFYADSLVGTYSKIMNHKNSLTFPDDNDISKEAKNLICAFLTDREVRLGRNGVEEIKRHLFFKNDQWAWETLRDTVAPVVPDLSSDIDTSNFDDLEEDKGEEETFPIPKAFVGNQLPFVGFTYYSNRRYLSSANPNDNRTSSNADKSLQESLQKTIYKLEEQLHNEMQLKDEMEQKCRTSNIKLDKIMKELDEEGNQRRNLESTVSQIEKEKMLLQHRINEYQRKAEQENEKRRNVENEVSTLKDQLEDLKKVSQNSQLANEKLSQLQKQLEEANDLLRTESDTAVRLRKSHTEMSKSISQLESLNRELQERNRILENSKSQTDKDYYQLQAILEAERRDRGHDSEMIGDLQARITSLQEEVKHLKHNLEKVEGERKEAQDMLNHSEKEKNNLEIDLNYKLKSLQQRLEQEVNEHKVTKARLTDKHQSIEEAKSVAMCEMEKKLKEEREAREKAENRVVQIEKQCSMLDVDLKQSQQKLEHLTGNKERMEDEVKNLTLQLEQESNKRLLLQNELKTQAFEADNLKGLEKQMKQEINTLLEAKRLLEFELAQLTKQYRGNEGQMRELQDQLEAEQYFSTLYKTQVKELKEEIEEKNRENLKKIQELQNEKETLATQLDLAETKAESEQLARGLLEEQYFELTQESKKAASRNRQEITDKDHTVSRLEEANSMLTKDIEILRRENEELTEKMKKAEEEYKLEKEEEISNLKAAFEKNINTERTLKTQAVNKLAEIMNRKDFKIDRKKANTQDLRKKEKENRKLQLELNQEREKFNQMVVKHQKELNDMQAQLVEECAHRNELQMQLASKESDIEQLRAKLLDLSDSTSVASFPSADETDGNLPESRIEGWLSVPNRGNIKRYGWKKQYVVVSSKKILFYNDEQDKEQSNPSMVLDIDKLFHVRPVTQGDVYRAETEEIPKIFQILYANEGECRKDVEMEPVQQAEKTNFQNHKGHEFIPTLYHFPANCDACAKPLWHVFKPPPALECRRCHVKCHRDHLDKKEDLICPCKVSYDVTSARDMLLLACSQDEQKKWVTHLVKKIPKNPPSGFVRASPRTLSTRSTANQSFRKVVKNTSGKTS
# Experimental: as §1
# Rho kinase 2 (ROCK2), sequence (O75116 whole entry): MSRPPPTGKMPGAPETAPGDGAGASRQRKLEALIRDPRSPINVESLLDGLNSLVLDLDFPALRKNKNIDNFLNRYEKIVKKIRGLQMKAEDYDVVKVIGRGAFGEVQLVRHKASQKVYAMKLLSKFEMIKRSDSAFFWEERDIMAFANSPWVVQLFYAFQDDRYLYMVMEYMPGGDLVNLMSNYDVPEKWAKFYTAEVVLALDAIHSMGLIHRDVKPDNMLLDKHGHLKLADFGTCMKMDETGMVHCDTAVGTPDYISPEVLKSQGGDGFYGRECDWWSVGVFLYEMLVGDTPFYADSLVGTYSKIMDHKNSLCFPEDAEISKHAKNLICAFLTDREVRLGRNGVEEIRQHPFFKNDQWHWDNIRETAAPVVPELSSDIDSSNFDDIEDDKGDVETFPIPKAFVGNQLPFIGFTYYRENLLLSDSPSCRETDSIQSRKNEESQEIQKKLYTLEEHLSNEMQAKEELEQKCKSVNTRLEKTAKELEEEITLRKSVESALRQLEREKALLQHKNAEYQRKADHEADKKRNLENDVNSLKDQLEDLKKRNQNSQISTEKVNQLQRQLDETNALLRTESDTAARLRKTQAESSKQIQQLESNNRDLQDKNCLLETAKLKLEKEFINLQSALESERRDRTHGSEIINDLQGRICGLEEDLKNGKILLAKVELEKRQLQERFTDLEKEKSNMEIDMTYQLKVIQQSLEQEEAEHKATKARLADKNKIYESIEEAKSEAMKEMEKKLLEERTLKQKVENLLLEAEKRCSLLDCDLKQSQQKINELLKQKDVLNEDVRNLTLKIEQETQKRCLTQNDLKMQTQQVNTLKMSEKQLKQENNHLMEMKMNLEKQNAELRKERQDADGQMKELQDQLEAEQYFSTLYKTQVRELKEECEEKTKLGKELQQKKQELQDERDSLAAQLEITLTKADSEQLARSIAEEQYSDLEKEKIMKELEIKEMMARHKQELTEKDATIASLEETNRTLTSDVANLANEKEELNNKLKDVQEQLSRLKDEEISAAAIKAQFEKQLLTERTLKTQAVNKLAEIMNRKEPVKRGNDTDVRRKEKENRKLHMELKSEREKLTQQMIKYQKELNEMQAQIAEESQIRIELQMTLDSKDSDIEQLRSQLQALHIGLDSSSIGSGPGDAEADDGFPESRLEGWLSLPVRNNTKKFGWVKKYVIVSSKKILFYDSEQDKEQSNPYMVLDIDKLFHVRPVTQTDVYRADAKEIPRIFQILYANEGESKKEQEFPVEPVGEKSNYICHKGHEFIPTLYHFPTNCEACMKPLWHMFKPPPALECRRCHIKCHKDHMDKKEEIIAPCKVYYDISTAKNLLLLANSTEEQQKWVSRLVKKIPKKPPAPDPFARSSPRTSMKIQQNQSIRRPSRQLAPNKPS
Ki (Rho kinase 2 (ROCK2)) [nM],Ki (Rho kinase 1 (ROCK1)) [nM],SMILES
3 to 30,3 to 30,"Cc1c[nH]c2nccc(Oc3ccc(C(N)CC(=O)N4CCN(Cc5ccccc5)CC4)cc3)c12 (single isomer, unassigned) [Example 7B, 3-amino-1-(4-benzylpiperazin-1-yl)-3-(4-((3-methyl-1H-pyrrolo[2,3-b]pyridin-4-yl)oxy)phenyl)propan-1-one]"
< 3,< 3,"Cc1c[nH]c2nccc(Oc3ccc(CC(CN)C(=O)N4CCN(Cc5ccccc5)CC4)cc3F)c12 (centres unmarked) [Example 29, 3-amino-1-(4-benzylpiperazin-1-yl)-2-(3-fluoro-4-((3-methyl-1H-pyrrolo[2,3-b]pyridin-4-yl)oxy)benzyl)propan-1-one]"
< 3,< 3,"Cc1c[nH]c2nccc(Oc3ccc([C@H]4CCN[C@@H]4C(=O)NCCc4ccncc4)cc3)c12 (racemic) [Example 20, rac-(2S,3R)-3-(4-((3-methyl-1H-pyrrolo[2,3-b]pyridin-4-yl)oxy)phenyl)-N-(2-(pyridin-4-yl)ethyl)pyrrolidine-2-carboxamide]"
< 3,3 to 30,"COCCCNC(=O)[C@H]1NCC[C@@H]1c1ccc(Oc2ccnc3[nH]cc(C)c23)cc1 (racemic) [Example 21, rac-(2S,3R)-N-(3-methoxypropyl)-3-(4-((3-methyl-1H-pyrrolo[2,3-b]pyridin-4-yl)oxy)phenyl)pyrrolidine-2-carboxamide]"
< 3,< 3,"Cc1c[nH]c2nccc(Oc3ccc([C@H]4CNC[C@@H]4C(=O)NCc4ccccc4)cc3)c12 (racemic) [Example 17, rac-(3R,4S)-N-benzyl-4-(4-((3-methyl-1H-pyrrolo[2,3-b]pyridin-4-yl)oxy)phenyl)pyrrolidine-3-carboxamide]"
< 3,3 to 30,"Cc1c[nH]c2nccc(Oc3ccc([C@H]4CNC[C@@H]4C(=O)N(C)Cc4ccccc4)cc3)c12 (racemic) [Example 18, rac-(3R,4S)-N-benzyl-N-methyl-4-(4-((3-methyl-1H-pyrrolo[2,3-b]pyridin-4-yl)oxy)phenyl)pyrrolidine-3-carboxamide]"
3 to 30,3 to 30,"NCC(Cc1ccc(Oc2ccnc3[nH]ccc23)cc1)C(=O)NC1CCCCC1 (centres unmarked) [Example 33, 2-(4-((1H-pyrrolo[2,3-b]pyridin-4-yl)oxy)benzyl)-3-amino-N-cyclohexylpropanamide]"
> 30,> 30,"Cc1c[nH]c2nccc(Oc3ccc(C4CC(=O)N(CCc5ccncc5)CN4)cc3)c12 (centres unmarked) [Example 40, 6-(4-((3-methyl-1H-pyrrolo[2,3-b]pyridin-4-yl)oxy)phenyl)-3-(2-(pyridin-4-yl)ethyl)tetrahydropyrimidin-4(1H)-one]"
3 to 30,3 to 30,"Cc1c[nH]c2nccc(Oc3ccc([C@H]4CCN[C@@H]4C(=O)NC4CCN(C)CC4)cc3)c12 (racemic) [Example 25, rac-(2S,3R)-3-(4-((3-methyl-1H-pyrrolo[2,3-b]pyridin-4-yl)oxy)phenyl)-N-(1-methylpiperidin-4-yl)pyrrolidine-2-carboxamide]"
< 3,3 to 30,"CN1C[C@@H]2C[C@H]1CN2C(=O)C(CN)Cc1ccc(Oc2ccnc3[nH]cc(C#N)c23)cc1 (stereo partly drawn) [Example 48, 4-(4-(2-(aminomethyl)-3-((1S,4S)-5-methyl-2,5-diazabicyclo[2.2.1]heptan-2-yl)-3-oxopropyl)phenoxy)-1H-pyrrolo[2,3-b]pyridine-3-carbonitrile]"
